Values quoted from earlier work in patent US20050043369A1, “Bactericidal antimicrobial methods and compositions for use in treating gram positive infections” (Protez Pharmaceuticals Inc., priority 2000, published 2005).

Test system: S. aureus (SA1199)
Details: vancomycin; Jeffrey et al., 1999; cited from earlier work

CN[C@H](CC(C)C)C(=O)N[C@H]1C(=O)N[C@@H](CC(N)=O)C(=O)N[C@H]2C(=O)N[C@H]3C(=O)N[C@H](C(=O)N[C@H](C(=O)O)c4cc(O)cc(O)c4-c4cc3ccc4O)[C@H](O)c3ccc(c(Cl)c3)Oc3cc2cc(c3O[C@@H]2O[C@H](CO)[C@@H](O)[C@H](O)[C@H]2O[C@H]2C[C@](C)(N)[C@H](O)[C@H](C)O2)Oc2ccc(cc2Cl)[C@H]1O [vancomycin]
time to decrease the viability of S. aureus by 1000-fold: 4 to 8 h
